Reference: patent US9538759B2, “Chemical compositions and methodology to enhance plant growth and development” (priority 2013, dated 2017)

Columns and labels:
Type in all cases: in vivo
seed = assay: Replicated field plots comparing two lipoxygenase inhibitors as seed treatments, Safford, Arizona; conditions: for Germination % / Seedling Ht. (cm) / Surviving Stand %: inhibitor coated at 2.0 g per kg dry seed; for Germination % / Seedling Ht. (cm) / Surviving Stand % / Emergence Coeff.: fungicide co-treatment, mean ± standard error; for Emergence Coeff.: smaller coefficient = faster seedling emergence, 2.0 g per kg dry seed
Description: The presence of lipoxygenase isoenzymes has always been considered a necessary enzymatic constituent of seed, with the enzyme especially predominant in oil seeds. The detrimental effects of lipoxygenase activity on the viability and storage attributes of seeds have been reported by a number of authors. (Leopold; Parrish; Pfeiffer, et al.: and Hajika, et al.)
Propyl gallate is the inhibitor and antioxidant of choice for inclusion in the improvement of U.S. Pat. No. 4,209,316 described in this application. […] Selected location: Safford, Arizona Experimental Research Station. Each data entry represents the mean of replicated random samples plus or minus the standard error. The smaller the emergence coefficient, the faster the speed of seedling emergence from the soil. All treatments except the first control received a fungicide co-treatment. Lipoxygenase inhibitors were coated on the seed at a rate of 2.0 grams per kilogram of dry seed.

Acala type cottons = assay: Harvested seed cotton weight of container grown cottons, Tucson, Ariz.
Description: Table three illustrates the comparative advantage of the combination of buffered AMP and propyl gallate liquid formulation applied to two sets of Acala type cottons container grown in Tucson, Ariz. An extended harvest period was possible. Seed cotton was hand picked over several weeks. Bolls with fiber and seed were dried, individually weighed, and treatments were separated and bulked together. Osmocote complete fertilizer was applied twice—at two and four weeks—following the chemical formulation applications.

seeds = assay: Classical antioxidants applied to seeds at much higher concentrations

Compound | Germination % (seed) [%] | Seedling Ht. (cm) (seed) | Surviving Stand % (seed) [%] | effectiveness as lipoxygenase inhibitor seed treatment (seed; seed treatment with inhibitor alone) | Emergence Coeff. (seed) | Combined weight of harvested seed cotton per group (in grams) (Acala type cottons; group one) [grams] | Combined weight of harvested seed cotton per group (in grams) (Acala type cottons; group two) [grams] | enhancement of seed germination and viability traits (seeds)
Oc1ccc(O)cc1 [Hydroquinone] | 22.9 ± 3.1 | 16.6 ± 0.4 | 60.6 ± 3.5 | effective | 0.50 ± 0.04 |  |  | 
CCCOC(=O)c1cc(O)c(O)c(O)c1 [Propyl Gallate, propyl gallate] | 23.0 ± 2.3 | 17.3 ± 0.6 | 57.8 ± 3.0 |  | 0.52 ± 0.03 | 640 | 423 | 
O=C1O[C@H]([C@@H](O)CO)C(O)=C1O [ascorbic acid] |  |  |  |  |  |  |  | no enhancement
Cc1cc(C(C)(C)C)c(O)c(C(C)(C)C)c1 [butylated hydroxylated toluene] |  |  |  |  |  |  |  | no enhancement
vitamin E |  |  |  |  |  |  |  | no enhancement
